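Values below derive from 48-hour exposures of cells grown in 96-well plates, with endpoints linearly interpolated between the two concentrations bracketing the appropriate inhibition level. TGI denotes the concentration required for complete inhibition of growth.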
Key:
Assay in all cases: growth of human tumour cells (NCI), 48 h
[1] = test system: CCRF-CEM leukemia
[2] = test system: KM20L2 colon
[3] = test system: RPMI-8226 leukemia
[4] = test system: NCI-H460 lung
[5] = test system: A549 NSCLC
[6] = test system: HCT-15 colon
[7] = test system: LXFL 529 NSCLC
[8] = test system: NCI-H226 lung
[9] = test system: CAKI-1 renal
[10] = test system: HCT-116 colon
[11] = test system: SF-268 CNS
[12] = test system: UACC-62 melanoma
[13] = test system: SN12C renal
[14] = test system: A498 renal
[15] = test system: SK-OV-3 ovarian
[16] = test system: NCI-H522 lung
[17] = test system: SNB-75 CNS
[18] = test system: MALME-3M melanoma
[19] = test system: K-562 leukemia
[20] = test system: OVCAR-4 ovarian
[21] = test system: U251 CNS
[22] = test system: HT29 colon
[23] = test system: ACHN renal
[24] = test system: HOP-92 NSCLC
[25] = test system: EKVX NSCLC
[26] = test system: UO-31 renal
[27] = test system: DMS 114 small cell lung
[28] = test system: RXF 393 renal
[29] = test system: SR leukemia
[30] = test system: OVCAR-5 ovarian
[31] = test system: UACC-257 melanoma
[32] = test system: M19-MEL melanoma
[33] = test system: SF-539 CNS
[34] = test system: SNB-19 CNS
[35] = test system: IGROV1 ovarian
[36] = test system: DLD-1 colon
[37] = test system: SNB-78 CNS
[38] = test system: LOX IMVI melanoma
[39] = test system: OVCAR-3 ovarian
[40] = test system: TK-10 renal
[41] = test system: HOP-62 NSCLC
[42] = test system: DMS 273 small cell lung
[43] = test system: NCI-H23 lung
[44] = test system: OVCAR-8 ovarian
[45] = test system: SK-MEL-5 melanoma
[46] = test system: COLO 205 colon
[47] = test system: KM12 colon
[48] = test system: SF-295 CNS
[49] = test system: SK-MEL-28 melanoma
[50] = test system: M14 melanoma
[51] = test system: SW-620 colon
[52] = test system: HCC-2998 colon
[53] = test system: 786-0 renal
[54] = test system: HL-60(TB) leukemia
[55] = test system: XF 498 CNS
[56] = test system: MOLT-4 leukemia
[57] = test system: SK-MEL-2 melanoma

CCOC(=O)C1N(S(=O)(=O)c2ccc(C)cc2)CCC12c1ccccc1NC2c1ccc(OC)c(OC)c1 (stereo unspecified)
TGI [1]: > 100 µM
TGI [2]: > 100 µM
TGI [3]: > 100 µM
TGI [4]: > 100 µM
TGI [5]: > 100 µM
TGI [6]: > 100 µM
TGI [7]: > 100 µM
TGI [8]: > 100 µM
TGI [9]: > 100 µM
TGI [10]: > 100 µM
TGI [11]: > 100 µM
TGI [12]: > 100 µM
TGI [13]: > 100 µM
TGI [14]: > 100 µM
TGI [15]: > 100 µM
TGI [16]: > 100 µM
TGI [17]: > 100 µM
TGI [18]: > 100 µM
TGI [19]: > 100 µM
TGI [20]: > 100 µM
TGI [21]: > 100 µM
TGI [22]: > 100 µM
TGI [23]: > 100 µM
TGI [24]: 24.4 µM
TGI [25]: > 100 µM
TGI [26]: > 100 µM
TGI [27]: > 100 µM
TGI [28]: > 100 µM
TGI [29]: > 100 µM
TGI [30]: > 100 µM
TGI [31]: > 100 µM
TGI [32]: > 100 µM
TGI [33]: > 100 µM
TGI [34]: > 100 µM
TGI [35]: 34 µM
TGI [36]: > 100 µM
TGI [37]: > 100 µM
TGI [38]: > 100 µM
TGI [39]: > 100 µM
TGI [40]: > 100 µM
TGI [41]: > 100 µM
TGI [42]: > 100 µM
TGI [43]: > 100 µM
TGI [44]: > 100 µM
TGI [45]: > 100 µM
TGI [46]: > 100 µM
TGI [47]: > 100 µM
TGI [48]: > 100 µM
TGI [49]: > 100 µM
TGI [50]: > 100 µM
TGI [51]: > 100 µM
TGI [52]: > 100 µM
TGI [53]: > 100 µM
TGI [54]: > 100 µM
TGI [55]: > 100 µM

N#CC(/C(=N/N=C(N)N)C(=O)Nc1ccccc1[N+](=O)[O-])c1nc(-c2ccc([N+](=O)[O-])cc2)cs1 (stereo unspecified)
TGI [1]: > 100 µM
TGI [2]: > 100 µM
TGI [3]: > 100 µM
TGI [4]: > 100 µM
TGI [5]: > 100 µM
TGI [6]: > 100 µM
TGI [7]: > 100 µM
TGI [8]: > 100 µM
TGI [9]: > 100 µM
TGI [10]: > 100 µM
TGI [11]: > 100 µM
TGI [12]: > 100 µM
TGI [13]: > 100 µM
TGI [14]: > 100 µM
TGI [15]: > 100 µM
TGI [56]: > 100 µM
TGI [16]: > 100 µM
TGI [17]: > 100 µM
TGI [18]: > 100 µM
TGI [19]: > 100 µM
TGI [20]: > 100 µM
TGI [21]: > 100 µM
TGI [22]: > 100 µM
TGI [23]: > 100 µM
TGI [25]: > 100 µM
TGI [26]: > 100 µM
TGI [27]: > 100 µM
TGI [28]: > 100 µM
TGI [29]: > 100 µM
TGI [30]: > 100 µM
TGI [31]: > 100 µM
TGI [32]: > 100 µM
TGI [33]: > 100 µM
TGI [34]: > 100 µM
TGI [35]: > 100 µM
TGI [36]: > 100 µM
TGI [37]: > 100 µM
TGI [38]: > 100 µM
TGI [39]: > 100 µM
TGI [40]: > 100 µM
TGI [41]: > 100 µM
TGI [42]: > 100 µM
TGI [43]: > 100 µM
TGI [44]: > 100 µM
TGI [45]: > 100 µM
TGI [46]: > 100 µM
TGI [47]: > 100 µM
TGI [48]: > 100 µM
TGI [49]: > 100 µM
TGI [50]: > 100 µM
TGI [51]: > 100 µM
TGI [52]: > 100 µM
TGI [53]: > 100 µM
TGI [54]: > 100 µM
TGI [57]: > 100 µM
TGI [55]: > 100 µM

Reference: PubChem BioAssay (NCI)
